Laboratory results reported in PubChem BioAssay AID330 (DTP/NCI, 2004).
Where “and” joins values, the source holds several entries; their conditions need not be identical. Equal values may be shown once. Toxic doses and inconclusive results are not listed. How the source made its calls: active means survival T/C of 150% or more; inactive means T/C below 125% in these data. Peptide text beside a SMILES is read from it. * marks the point of attachment. Cbz = O=C(OCc1ccccc1)*

Tested on: P388 leukemia ip, CD2F1 mice, survival T/C
Test: NCI In Vivo Anticancer Drug Screen. Data for tumor model P388 Leukemia (intraperitoneal) in CD2F1 (CDF1) mice
Conditions: endpoint: median survival time, higher = longer survival
Summary of the method: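 Mice carrying the transplanted tumor received test compound or vehicle. Survival was recorded in each group, and the value is the treated-group measurement divided by that of the vehicle-treated control group.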

[1] = dose: 50.0 mg/kg/injection, schedule: Q01DX005 (ip), vehicle: Klucel (hydroxypropylcellulose) (HPC)
[2] = dose: 100.0 mg/kg/injection, schedule: Q01DX005 (ip), vehicle: Klucel (hydroxypropylcellulose) (HPC)
[3] = dose: 200.0 mg/kg/injection, schedule: Q01DX005 (ip), vehicle: Klucel (hydroxypropylcellulose) (HPC)
[4] = dose: 25.0 mg/kg/injection, schedule: Q01DX005 (ip), vehicle: Klucel (hydroxypropylcellulose) (HPC)
[5] = dose: 50.0 mg/kg/injection, schedule: Q01DX005 (ip), vehicle: saline with Tween-80
[6] = dose: 100.0 mg/kg/injection, schedule: Q01DX005 (ip), vehicle: saline with Tween-80

Measured: T/C

CC(C)(C)C#CP(C#CC(C)(C)C)C#CC(C)(C)C
inactive: dose: 12.5 mg/kg/injection, schedule: Q04DX003 (ip), vehicle: Klucel (hydroxypropylcellulose) (HPC) 108 % of control | dose: 25.0 mg/kg/injection, schedule: Q04DX003 (ip), vehicle: Klucel (hydroxypropylcellulose) (HPC) 106 % of control | dose: 50.0 mg/kg/injection, schedule: Q04DX003 (ip), vehicle: Klucel (hydroxypropylcellulose) (HPC) 111 % of control

CCCCCCCCCCCC(O)CCCCC (stereo not drawn)
inactive: dose: 100.0 mg/kg/injection, schedule: Q04DX003 (ip), vehicle: other 100 % of control | dose: 200.0 mg/kg/injection, schedule: Q04DX003 (ip), vehicle: other 100 % of control | dose: 400.0 mg/kg/injection, schedule: Q04DX003 (ip), vehicle: other 100 % of control

Oc1ccc(O)c2nc3ccccc3nc12
inactive: dose: 1.56 mg/kg/injection, schedule: Q01DX009 (ip), vehicle: distilled water + Tween-80 104 % of control | dose: 3.12 mg/kg/injection, schedule: Q01DX009 (ip), vehicle: distilled water + Tween-80 105 % of control | dose: 6.25 mg/kg/injection, schedule: Q01DX009 (ip), vehicle: distilled water + Tween-80 104 % of control and 97 % of control

CNC(=O)C1CCCCC1Br (stereo not drawn)
inactive: [1] 103 % of control | [2] 103 % of control | [3] 105 % of control

O=C(NCC1CC1)c1ccccc1NC(=O)c1cc2ccccc2oc1=O
inactive: dose: 60.0 mg/kg/injection, schedule: Q01DX005 (ip), vehicle: saline with Tween-80 100 % of control | dose: 120.0 mg/kg/injection, schedule: Q01DX005 (ip), vehicle: saline with Tween-80 100 % of control | dose: 240.0 mg/kg/injection, schedule: Q01DX005 (ip), vehicle: saline with Tween-80 108 % of control

O=C1c2ccccc2C(=O)c2c(NC(=O)C(F)(F)F)cccc21
inactive: dose: 12.5 mg/kg/injection, schedule: Q01DX005 (ip), vehicle: Klucel (hydroxypropylcellulose) (HPC) 96 % of control | [4] 93 % of control | [1] 87 % of control and 89 % of control

CCCCC1=C([Si](C)(C)C)C(=O)c2ccccc2C1=O
inactive: [4] 109 % of control | [1] 110 % of control and 111 % of control and 113 % of control | [2] 115 % of control and 86 % of control | [3] 110 % of control and 118 % of control

CC(=O)NCCCCCCNC(C)=O
inactive: dose: 25.0 mg/kg/injection, schedule: Q01DX009 (ip), vehicle: saline 100 % of control and 111 % of control and 97 % of control | dose: 31.0 mg/kg/injection, schedule: Q03HX008 (ip), vehicle: saline 101 % of control | dose: 41.7 mg/kg/injection, schedule: Q03HX024 (ip), vehicle: saline 105 % of control | dose: 50.0 mg/kg/injection, schedule: Q01DX009 (ip), vehicle: saline 100 % of control and 103 % of control and 119 % of control | dose: 62.5 mg/kg/injection, schedule: Q03HX008 (ip), vehicle: saline 103 % of control | dose: 83.0 mg/kg/injection, schedule: Q03HX024 (ip), vehicle: saline 107 % of control | dose: 100.0 mg/kg/injection, schedule: Q01DX009 (ip), vehicle: saline 103 % of control and 104 % of control | dose: 125.0 mg/kg/injection, schedule: Q03HX008 (ip), vehicle: saline 103 % of control | dose: 166.7 mg/kg/injection, schedule: Q03HX024 (ip), vehicle: saline 110 % of control | dose: 200.0 mg/kg/injection, schedule: Q01DX009 (ip), vehicle: saline 100 % of control and 105 % of control and 117 % of control | dose: 250.0 mg/kg/injection, schedule: Q01DX001 (ip), vehicle: saline 99 % of control | dose: 250.0 mg/kg/injection, schedule: Q03HX008 (ip), vehicle: saline 106 % of control | dose: 333.0 mg/kg/injection, schedule: Q03HX024 (ip), vehicle: saline 110 % of control | dose: 333.0 mg/kg/injection, schedule: Q04DX003 (ip), vehicle: saline 101 % of control | dose: 400.0 mg/kg/injection, schedule: Q01DX009 (ip), vehicle: saline 100 % of control and 105 % of control and 111 % of control | dose: 500.0 mg/kg/injection, schedule: Q01DX001 (ip), vehicle: saline 99 % of control | dose: 500.0 mg/kg/injection, schedule: Q03HX008 (ip), vehicle: saline 113 % of control | dose: 500.0 mg/kg/injection, schedule: Q03HX024 (ip), vehicle: saline 111 % of control | dose: 666.7 mg/kg/injection, schedule: Q04DX003 (ip), vehicle: saline 108 % of control | dose: 800.0 mg/kg/injection, schedule: Q01DX009 (ip), vehicle: saline 101 % of control and 108 % of control and 114 % of control | dose: 1000.0 mg/kg/injection, schedule: Q01DX001 (ip), vehicle: saline 101 % of control | dose: 1000.0 mg/kg/injection, schedule: Q03HX008 (ip), vehicle: saline 107 % of control | dose: 1333.0 mg/kg/injection, schedule: Q04DX003 (ip), vehicle: saline 106 % of control | dose: 2000.0 mg/kg/injection, schedule: Q01DX001 (ip), vehicle: saline 103 % of control | dose: 2666.0 mg/kg/injection, schedule: Q04DX003 (ip), vehicle: saline 105 % of control

Oc1ccc(C[n+]2ccccc2)cc1O
inactive: dose: 3.12 mg/kg/injection, schedule: Q01DX005 (ip), vehicle: saline 101 % of control and 97 % of control | dose: 6.25 mg/kg/injection, schedule: Q01DX005 (ip), vehicle: saline 102 % of control and 103 % of control | dose: 12.5 mg/kg/injection, schedule: Q01DX005 (ip), vehicle: saline 100 % of control and 105 % of control | dose: 25.0 mg/kg/injection, schedule: Q01DX005 (ip), vehicle: saline 92 % of control and 97 % of control

CCCCOc1ccc(-n2c(=O)[nH]c3ccccc3c2=O)cc1
inactive: [1] 96 % of control | [2] 100 % of control | [3] 96 % of control

CC/C(=C(/CC)c1ccc(OCC(=O)N/N=C2/C=C3CCC4C(CCC5(C)C(O)CCC45)C3(C)CC2)cc1)c1ccc(OCC(=O)N/N=C2\C=C3CCC4C(CCC5(C)C(O)CCC45)C3(C)CC2)cc1 (stereo not drawn)
inactive: dose: 50.0 mg/kg/injection, schedule: Q01DX001 (ip), vehicle: Klucel (hydroxypropylcellulose) (HPC) 95 % of control | dose: 100.0 mg/kg/injection, schedule: Q01DX001 (ip), vehicle: Klucel (hydroxypropylcellulose) (HPC) 87 % of control

CN(C)C(=O)C1CCC(=O)N1 (stereo not drawn)
inactive: dose: 60.0 mg/kg/injection, schedule: Q01DX005 (ip), vehicle: saline 100 % of control | dose: 120.0 mg/kg/injection, schedule: Q01DX005 (ip), vehicle: saline 109 % of control | dose: 240.0 mg/kg/injection, schedule: Q01DX005 (ip), vehicle: saline 105 % of control

N#CCC(=O)CCCCCCCO
inactive: dose: 100.0 mg/kg/injection, schedule: Q01DX001 (ip), vehicle: saline 93 % of control | dose: 400.0 mg/kg/injection, schedule: Q01DX001 (ip), vehicle: saline 92 % of control

[Cl][Hg][c]1cccc(I)c1N=Nc1ccccc1
inactive: dose: 2.5 mg/kg/injection, schedule: Q01DX009 (ip), vehicle: saline + alcohol 104 % of control | dose: 5.0 mg/kg/injection, schedule: Q01DX009 (ip), vehicle: saline + alcohol 94 % of control

Cc1cc(C)c[n+](-c2nc3c([O-])n(C)c(=O)n(C)c-3n2)c1
inactive: dose: 100.0 mg/kg/injection, schedule: Q04DX003 (ip), vehicle: saline 94 % of control | dose: 200.0 mg/kg/injection, schedule: Q04DX003 (ip), vehicle: saline 98 % of control | dose: 400.0 mg/kg/injection, schedule: Q04DX003 (ip), vehicle: saline 103 % of control

O=C(Nc1ccc(Cl)c(Cl)c1)Sc1ccc(Cl)cc1
inactive: [5] 113 % of control | [6] 119 % of control | dose: 200.0 mg/kg/injection, schedule: Q01DX005 (ip), vehicle: saline with Tween-80 112 % of control

CC(C)CC(NC(=O)C(Cc1ccccc1)NC(=O)OCc1ccccc1)C(=O)O (stereo not drawn) (Cbz-Phe-Leu-OH; configuration not given here)
inactive: [5] 108 % of control | [6] 105 % of control

COc1ccc(C2C(C#N)C(=O)NC(=O)C2C#N)cc1OC (stereo not drawn)
inactive: dose: 50.0 mg/kg/injection, schedule: Q01DX009 (ip), vehicle: Klucel (hydroxypropylcellulose) (HPC) 98 % of control | dose: 100.0 mg/kg/injection, schedule: Q01DX009 (ip), vehicle: Klucel (hydroxypropylcellulose) (HPC) 107 % of control | dose: 200.0 mg/kg/injection, schedule: Q01DX009 (ip), vehicle: Klucel (hydroxypropylcellulose) (HPC) 111 % of control

CC(C)SC(=O)C[Si](C)(C)C
inactive: dose: 50.0 mg/kg/injection, schedule: Q04DX003 (ip), vehicle: saline with Tween-80 98 % of control and 101 % of control | dose: 100.0 mg/kg/injection, schedule: Q04DX003 (ip), vehicle: saline with Tween-80 101 % of control and 104 % of control | dose: 200.0 mg/kg/injection, schedule: Q04DX003 (ip), vehicle: saline with Tween-80 103 % of control and 105 % of control | dose: 400.0 mg/kg/injection, schedule: Q04DX003 (ip), vehicle: saline with Tween-80 98 % of control
